Literature values in patent US10688070B2, “Serine glycerophospholipid preparation and method for treatment of seizures” (ENZYMOTEC LTD., priority 2013, dated 2020).

System: Valproate adverse events (hepatotoxicity)
Settings: in vivo

Q: For `CC/C=C\C/C=C\C/C=C\C/C=C\C/C=C\CCCC(=O)O` [EPA, Eicosapentanoic acid], which “Effect on adverse events of Valproate” value is on record?
A: The value was “did not reveal the same effect”.
